Measurements as given in US5486541A (Teva Pharmaceutical Industries, Ltd., priority 1991, dated 1996).
Entries after “also recorded” stand apart in the source; their conditions may differ. Where two headings read alike, the source gives them in different places.

Legend:
[1] = tested on: blood pressure response to tyramine; assay: Tyramine Potentiation in Vivo (blood pressure response to tyramine); set-up: species or system rat; settings: for Potentiation of blood pressure response to tyramine: compound 5 mg/kg orally, tyramine 20 mg/kg orally, ratio of areas under the curve of blood pressure
Method: On the previous day a tail artery cannulation was performed to enable direct blood pressure measurements. On the experimental day the cannulae were connected to pressure transducers. The animals were unrestrained and were kept in a glass sided open top tank during the pressure measurements. […] The desired compound was administered 30 minutes after the last dose of tyramine. Tyramine was administered again, in increasing doses, as described above, one hour after the desired compound was administered. […] The tyramine potentiating effect was calculated as a ratio between the areas under the curve of blood pressure measured with tyramine alone (20 mg/kg) and that measured after administration of the desired compounds and tyramine.

MAO-B [2] = target: T1, MAO-B (Rattus norvegicus, UniProt P19643); assay: biochemical; assay type: biochemical; settings: for IC50: 20 min preincubation at 37° C., PEA 20 μM, read-out: IC50 for Inhibition of MAO-B in Brain Homogenates
T1 sequence (P19643 1-520): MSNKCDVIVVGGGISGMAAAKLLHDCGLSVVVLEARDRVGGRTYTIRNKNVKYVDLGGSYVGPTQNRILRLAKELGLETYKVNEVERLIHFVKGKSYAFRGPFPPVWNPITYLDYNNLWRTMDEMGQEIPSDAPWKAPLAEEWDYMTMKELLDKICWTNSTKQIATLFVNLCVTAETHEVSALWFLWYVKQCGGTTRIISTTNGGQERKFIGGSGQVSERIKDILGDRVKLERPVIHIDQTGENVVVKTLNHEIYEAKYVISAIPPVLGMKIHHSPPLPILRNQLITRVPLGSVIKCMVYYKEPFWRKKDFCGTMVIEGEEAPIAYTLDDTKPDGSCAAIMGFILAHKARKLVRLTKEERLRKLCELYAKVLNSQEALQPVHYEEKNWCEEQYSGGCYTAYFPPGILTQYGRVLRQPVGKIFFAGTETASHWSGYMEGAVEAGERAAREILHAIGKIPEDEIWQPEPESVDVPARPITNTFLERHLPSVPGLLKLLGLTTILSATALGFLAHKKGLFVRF

MAO-A [3] = target: T2, MAO-A (Rattus norvegicus, UniProt P21396); assay: biochemical; settings: rat brain homogenate; 20 min preincubation at 37° C.; 5-HT 1 mM; read-out: IC50 for Inhibition of MAO-A in Brain Homogenates
T2 sequence (P21396 1-526): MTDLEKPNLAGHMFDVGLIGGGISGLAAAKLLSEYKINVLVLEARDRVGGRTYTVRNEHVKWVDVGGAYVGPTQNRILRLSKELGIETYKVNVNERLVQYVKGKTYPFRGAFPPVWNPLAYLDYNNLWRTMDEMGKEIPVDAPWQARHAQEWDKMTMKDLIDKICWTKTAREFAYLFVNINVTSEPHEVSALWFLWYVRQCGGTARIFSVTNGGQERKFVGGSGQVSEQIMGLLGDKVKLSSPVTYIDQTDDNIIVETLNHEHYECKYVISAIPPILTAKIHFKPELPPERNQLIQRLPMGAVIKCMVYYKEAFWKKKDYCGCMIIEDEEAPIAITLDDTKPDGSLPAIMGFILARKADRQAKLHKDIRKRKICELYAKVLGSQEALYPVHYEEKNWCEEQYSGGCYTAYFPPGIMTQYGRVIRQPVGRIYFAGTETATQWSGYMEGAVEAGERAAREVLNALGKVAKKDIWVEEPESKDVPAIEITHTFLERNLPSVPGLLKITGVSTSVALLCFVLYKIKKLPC

MAO-B [4] = assay: Inhibition of MAO Activity Ex-vivo: Acute Treatment, brain, MAO-B; assay type: in vivo, rat (male Sprague-Dawley derived); settings: for ED-50 BRAIN MAO-B: rat, ip or po, 2 hours after dosing; for BRAIN MAO-A/MAO-B (measure of selectivity): ratio of ED-50 values, rat brain, ex vivo
MAO-A [5] = assay: Inhibition of MAO Activity Ex-vivo: Acute Treatment, brain, MAO-A; assay type: in vivo, rat (male Sprague-Dawley derived); settings: rat, ip or po, 2 hours after dosing
[6] = at doses causing nearly complete inhibition of MAO-B; Elsworth et al.; cited from earlier work
Parkinson's patients = settings: with L-Dopa (and decarboxylase inhibitor); cited from earlier work
MAO-B [7] = assay: Inhibition of MAO Activity Ex-vivo: Acute Treatment, liver, MAO-B; assay type: in vivo, rat (male Sprague-Dawley derived); settings: for ED-50 LIVER MAO-B: rat, ip or po, 2 hours after dosing; for LIVER MAO-A/MAO-B (measure of selectivity): ratio of ED-50 values, rat liver, ex vivo
Method: (§1) These experiments were performed essentially according to the protocol of K. F. Tipton and M. B. H. Youdim in CIBA Symposium No. 39, Editors: G. E. W. Wolstenholme and J. Knight, Elsevier, Amsterdam, 1976, pp. 393-403. The MAO enzyme source was a homogenate of rat brain in 0.3M sucrose which was centrifuged at 600 g for 15 minutes. The supernatant was diluted appropriately in 0.05M phosphate buffer and preincubated with serial dilutions of compounds of interest which are listed below for 20 minutes at 37° C. ^14 C-labeled substrates (2-phenylethylamine, hereinafter PEA; 5-hydroxytryptamine, hereinafter 5-HT) were then added and the incubation continued for a further 20 minutes (PEA) or 30-45 minutes (5-HT). Substrate concentrations used were 20 μM (PEA) or 1 mM (5-HT). In the case of PEA the enzyme concentration was chosen so that not more than 10% of the substrate was metabolized during the course of the reaction. The reaction was then stopped by the addition of tranylcypromine (to final concentration of 1 mM) and the incubate filtered over a small column of Amberlite CG-50; buffered to pH 6.3. The column was washed with 1.5 ml water, the eluates pooled and the radioactive content determined by liquid scintillation spectrometry. Since the amine substrates are totally retained on the column, radioactivity in the eluate indicates the production of neutral and acidic metabolites formed as a result of MAO activity. Activity of MAO in the sample was expressed as a percentage of control activity in the absence of inhibitors after subtraction of appropriate blank values. The activity determined using PEA as a substrate is referred to as MAO B activity, and that determined using 5-HT as a substrate is referred to as MAO A activity.
(§2) Rats (male Sprague-Dawley derived) weighing 250±20 g were treated with the desired compound by intraperitoneal injection (ip) or oral gavage (po) and decapitated 2 hours later. Groups of three rats were used for each dose level of the compound and MAO activity was determined in the brain and liver using the general technique described above. The amount of protein in each incubation was determined using the Folin-Lowry method, and enzyme activity was calculated as nmol substrate metabolized per hour incubation for each mg protein. Activity of MAO in tissues from animals treated with inhibitors was expressed as a percentage of the enzyme activity in a group of control animals which were administered the vehicle alone (water in the case of oral gavage, or 0.9% saline in the case of intraperitoneal injection) and killed as above.

MAO-A [8] = assay: Inhibition of MAO Activity Ex-vivo: Acute Treatment, liver, MAO-A; assay type: in vivo, rat (male Sprague-Dawley derived); settings: rat, ip or po, 2 hours after dosing
Method: as §1, §2

[9] = ratio IC50 MAO-A / IC50 MAO-B, rat brain homogenate

| Compound | IC50 (MAO-B [2]; rat brain homogenate) [µM] | Selectivity MAO-A/MAO-B (in vitro IC50) (MAO-B [2]; [9]) | IC50 (MAO-A [3]) [µM] | ED-50 BRAIN MAO-B (MAO-B [4]) [mg/kg] | BRAIN MAO-A/MAO-B (measure of selectivity) (MAO-B [4]) | ED-50 BRAIN MAO-A (MAO-A [5]) [mg/kg] | ED-50 LIVER MAO-B (MAO-B [7]) [mg/kg] | LIVER MAO-A/MAO-B (measure of selectivity) (MAO-B [7]) | ED-50 LIVER MAO-A (MAO-A [8]) [mg/kg] | also measured |
| --- | --- | --- | --- | --- | --- | --- | --- | --- | --- | --- |
| NCCc1ccc(O)cc1 [Tyramine, reference compound] | – | – | – | – | – | – | – | – | – | effect of tyramine alone on blood pressure (in words) ([1]; tyramine alone, oral, 5, 10 and 20 mg/kg): caused increase of blood pressure |
| C#CCNC1CCc2c(F)cc(F)cc21 (single isomer, unassigned; (+)) [(+)-4,6-Difluoro] | 0.5 | 2 | 0.8 | 3.7 | 1 | 2.9 | – | – | – | – |
| C#CCN(C)[C@H](C)Cc1ccccc1 [(-)-deprenyl] | – | – | – | – | – | – | – | – | – | "cheese effect" of (-)-deprenyl (in words) [6]: not causing the "cheese effect"; clinical effect on addition to L-Dopa treatment (in words) (Parkinson's patients): improvements in akinesia and overall functional capacity as well as the elimination of "on-off" type fluctuations; also recorded: enhances and prolongs the effect of L-Dopa |
| C#CCNC1CCc2c(F)cccc21.Cl (single isomer, unassigned; (+)) [(+)-4-F, (+)-4-Fluoro-N-propargyl-1-aminoindan hydrochloride] | 0.0052 | 65 | 0.34 | 0.33 | > 3 | > 1.0 | 0.17 | > 5.9 | > 1.0 | Potentiation of blood pressure response to tyramine [1]: 1.55 fold |
| C#CCNC1CCc2c(F)cccc21.Cl (centres unmarked) [Example 4-F, 4-Fluoro-N-propargyl-1-aminoindan hydrochloride] | 0.0058 | 86 | 0.5 | 0.22 | 6 | 1.4 | 0.13 | 18.5 | 2.4 | – |
| C#CCNC1CCc2cc(F)ccc21.Cl (centres unmarked) [Example 5-F, 5-Fluoro-N-propargyl-1-aminoindan hydrochloride] | 0.006 | 116 | 0.7 | 0.4 | 6 | 2.3 | 0.06 | 36.7 | 2.2 | – |
| C#CCNC1CCc2cc(F)ccc21.Cl (single isomer, unassigned; (+)) [(+)-5-F, (+)-5-Fluoro-N-propargyl-1-aminoindan hydrochloride] | 0.0057 | 24 | 0.14 | 0.07 | > 1.4 | > 0.1 | 0.07 | > 1.4 | > 0.1 | Potentiation of blood pressure response to tyramine [1]: 2.25 fold |
| C#CCNC1CCc2ccc(F)cc21 (centres unmarked) [Example 6-F, 6-Fluoro-1-propargylaminoindan] | 0.0062 | 645 | 4 | 0.13 | 170 | 22 | – | – | – | – |
| C#CCNC1CCc2ccc(F)cc21.Cl (single isomer, unassigned; (-)) [(-)-6-F, (-)-6-Fluoro-N-propargyl-1-aminoindan hydrochloride] | 12 | – | 40 | – | – | – | – | – | – | Selectivity MAO-A/MAO-B (in vitro IC50) (MAO-B [2]; ratio IC50 MAO-A / IC50 MAO-B, rat brain homogenate, hydrochloride): 3; ED-50 BRAIN MAO-B (MAO-B [4]; hydrochloride, 120 min): 0.45 mg/kg; BRAIN MAO-A/MAO-B (measure of selectivity) (MAO-B [4]; hydrochloride): 51; ED-50 BRAIN MAO-A (MAO-A [5]; hydrochloride, 120 min): 23 mg/kg; ED-50 LIVER MAO-B (MAO-B [7]; hydrochloride, 120 min): < 0.5 mg/kg |
| C#CCNC1CCc2ccccc21 (centres unmarked) [H, N-propargyl-1-aminoindan, reference compound] | – | – | – | 0.07 | – | 1.2 | 0.06 | – | 5 | – |
| C#CCNC1CCc2ccc(Cl)cc21.Cl (centres unmarked) [Example 6-Cl, 6-Chloro-N-propargyl-1-aminoindan hydrochloride] | 0.0077 | 896 | 6.9 | 1.7 | 5.8 | 10 | – | – | – | – |
| C#CCNC1CCc2ccc(F)cc21.Cl (single isomer, unassigned; (+)) [(+)-6-F, (+)-6-Fluoro-N-propargyl-1-aminoindan hydrochloride] | 0.00022 | – | 2.8 | – | – | – | – | 40 | 5.2 | Selectivity MAO-A/MAO-B (in vitro IC50) (MAO-B [2]): 1244; MAO-B selectivity in vitro (in words) (MAO-B [2]; in vitro): much more selective than the parent non-fluorinated compound and more selective than the other fluorinated derivatives; ED-50 BRAIN MAO-B (MAO-B [4]; hydrochloride, 120 min): 0.14 mg/kg; ED-50 BRAIN MAO-B (MAO-B [4]; listed as (+)-6-F-N-propargyl-1-aminoindan, hydrochloride, 120 min): 0.14 mg/kg; BRAIN MAO-A/MAO-B (measure of selectivity) (MAO-B [4]; hydrochloride): 152; ED-50 BRAIN MAO-A (MAO-A [5]; hydrochloride, 120 min): 21.3 mg/kg; ED-50 LIVER MAO-B (MAO-B [7]; hydrochloride, 120 min): 0.13 mg/kg; Potentiation of blood pressure response to tyramine [1]: 1.2 fold; tyramine potentiating effect (in words) ([1]; rat, 5 mg/kg oral, listed as (+)-6-F-N-propargyl-1-aminoindan, hydrochloride, 5 mg/kg): lowest potentiating effect as compared to the (+)-5-F and (+)-4-F derivatives; also recorded: does not cause significant potentiation of tyramine; also recorded: a dose 35 times higher results practically in no tyramine potentiation |
